Assay results from ChEMBL document CHEMBL1156268, “Michael acceptor based antiplasmodial and antitrypanosomal cysteine protease inhibitors with unusual amino acids” (J Med Chem, 2010).
Calls of active or inactive are those of the source. The rule behind the calls is not given here. Residues, ends and D or L forms follow the SMILES beside them. *: point of attachment. X1 = O=C(/C=C/CO)*

How the values were obtained:
[1] = test system: Trypanosoma brucei brucei; experiment: Antitrypanosomal activity against Trypanosoma brucei brucei; assay type: functional, organism-based
[2] = Inhibition of Plasmodium falciparum recombinant falcipain-2 using Cbz-Leu-Arg-AMC as substrate by standard fluorescence assay
Plasmodium falciparum [3] = experiment: Antiplasmodial activity against Plasmodium falciparum W2 by flow cytometry; assay type: functional, organism-based
Plasmodium falciparum [4] = experiment: Inhibition of Plasmodium falciparum recombinant falcipain-3 at 100 uM by standard fluorescence assay
Plasmodium falciparum [5] = experiment: Inhibition of Plasmodium falciparum recombinant falcipain-2 at 100 uM by standard fluorescence assay
Plasmodium falciparum [6] = experiment: Antiplasmodial activity against Plasmodium falciparum W2 at 100 uM by flow cytometry; assay type: functional
[7] = test system: Trypanosoma brucei brucei; experiment: Antitrypanosomal activity against Trypanosoma brucei brucei at 100 uM; assay type: functional, organism-based
[8] = molecular target: Rhodesain (Trypanosoma brucei rhodesiense) (UniProt Q95PM0); experiment: Inhibition of Trypanosoma brucei rhodesiense recombinant rhodesain at 100 uM by standard fluorescence assay
Rhodesain (Trypanosoma brucei rhodesiense), sequence (Q95PM0 1-450): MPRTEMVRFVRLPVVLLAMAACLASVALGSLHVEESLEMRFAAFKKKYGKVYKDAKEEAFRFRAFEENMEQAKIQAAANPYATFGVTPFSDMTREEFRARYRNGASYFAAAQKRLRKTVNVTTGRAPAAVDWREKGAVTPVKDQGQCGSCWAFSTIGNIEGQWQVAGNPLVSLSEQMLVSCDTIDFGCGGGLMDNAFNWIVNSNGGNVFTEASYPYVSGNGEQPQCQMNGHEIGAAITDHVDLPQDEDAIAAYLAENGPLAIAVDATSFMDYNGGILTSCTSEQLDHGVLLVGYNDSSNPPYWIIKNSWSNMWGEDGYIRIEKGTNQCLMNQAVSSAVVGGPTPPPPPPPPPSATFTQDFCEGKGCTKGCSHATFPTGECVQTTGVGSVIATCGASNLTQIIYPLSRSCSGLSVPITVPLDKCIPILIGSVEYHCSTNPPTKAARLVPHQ

| Compound | IC50 [1] [µM] | Ki [2] [µM] | IC50 (Plasmodium falciparum [3]) [µM] | inhibition (Plasmodium falciparum [4]) | inhibition (Plasmodium falciparum [5]) | inhibition [8] | inhibition (Plasmodium falciparum [6]) | inhibition [7] |
| --- | --- | --- | --- | --- | --- | --- | --- | --- |
| CCOC(=O)/C=C\C(=O)OC[C@H](Cc1ccccc1)NC(=O)OC(C)(C)C | 17 | 54.3 | 100 | inactive | – | – | – | – |
| CCOC(=O)/C=C/N[C@@H](CC(N)=O)C(=O)OC(C)(C)C | – | – | – | inactive | inactive | inactive | inactive | inactive |
| CC(C)C[C@H](NC(=O)[C@H](CCC(N)=O)NC(=O)/C=C/CO)C(=O)N[C@H](C(=O)N[C@H](C(N)=O)C(C)C)C(C)C (X1-QLVV-NH2) | – | – | – | – | 27% | inactive | – | – |
| CCOC(=O)/C=C/COC(=O)[C@H](CCC(N)=O)NC(=O)OC(C)(C)C | – | 37.7 | – | inactive | – | inactive | inactive | inactive |
| O=C(O)/C=C/C(=O)N[C@@H](Cc1ccccc1)C(=O)OCc1ccccc1 | – | – | – | – | inactive | 11% | inactive | inactive |
| CCOC(=O)/C=C/CN[C@@H](CCC(N)=O)C(=O)OC(C)(C)C | – | – | – | inactive | inactive | inactive | inactive | inactive |
| CCOC(=O)/C=C/OC[C@H](CCC(N)=O)NC(=O)OC(C)(C)C | – | – | – | inactive | inactive | inactive | inactive | inactive |
| CCOC(=O)/C=C/COC(=O)[C@H](CCC(N)=O)NC(=O)[C@H](CC(C)C)NC(=O)OC(C)(C)C | – | – | – | inactive | inactive | inactive | inactive | inactive |
| C[C@H](NC(=O)[C@H](Cc1ccccc1)NC(=O)/C=C\C(=O)O)C(=O)OCc1ccccc1 | – | 25 | 50.3 | inactive | – | – | – | – |
| CCOC(=O)/C=C/C(=O)N[C@@H](CC(N)=O)C(=O)OC(C)(C)C | – | – | – | inactive | inactive | inactive | inactive | inactive |

Continued, in another order:

| IC50 [1] [µM] | Ki [2] [µM] | IC50 (Plasmodium falciparum [3]) [µM] | inhibition (Plasmodium falciparum [4]) | inhibition (Plasmodium falciparum [5]) | inhibition [8] | Compound | inhibition (Plasmodium falciparum [6]) | inhibition [7] |
| --- | --- | --- | --- | --- | --- | --- | --- | --- |
| – | – | – | inactive | inactive | inactive | CCOC(=O)/C=C/C(=O)O.CCOC(=O)/C=C/C(=O)OC[C@H](CCC(N)=O)NC(=O)OC(C)(C)C | inactive | inactive |
| – | – | – | inactive | inactive | inactive | CCOC(=O)/C=C/N[C@@H](CCC(N)=O)C(=O)OC(C)(C)C | inactive | inactive |
| 31.3 | – | – | – | inactive | 25% | CCOC(=O)/C=C/C(=O)O.CCOC(=O)/C=C/C(=O)OC[C@H](CCC(N)=O)NC(=O)[C@@H](NC(=O)OC(C)(C)C)c1ccccc1 | – | – |
| – | 25.1 | – | inactive | – | inactive | CCOC(=O)/C=C/COC(=O)[C@H](CC(N)=O)NC(=O)[C@H](CC(C)C)NC(=O)OC(C)(C)C | inactive | inactive |
| 25.1 | 12 | 7.3 | inactive | – | 20% | CCOC(=O)/C=C/C(=O)N[C@@H](CC(=O)NC(c1ccccc1)(c1ccccc1)c1ccccc1)C(=O)OC | – | – |
| 32 | 25 | – | inactive | – | inactive | CCOC(=O)/C=C/COC(=O)[C@H](CCC(N)=O)NC(=O)[C@@H](NC(=O)OC(C)(C)C)C1CCCCC1 | inactive | – |
| – | 10.5 | 14.6 | inactive | – | – | CC(C)C[C@H](NC(=O)[C@H](C)NC(=O)[C@H](Cc1ccccc1)NC(=O)/C=C\C(=O)O)C(=O)OCc1ccccc1 | – | – |
